This is an account of results in patent US20090118372A1, “Inhibitors Of Biotin Protein Ligase” (Adelaide Research & Innovation Pty Ltd., priority 2004, published 2009).

The term IC50 denotes the concentration that inhibits the measured activity by half. The Km is the concentration of substrate that gives half-maximal velocity.

Data set [1] has as its target T1, human BPL (Homo sapiens, UniProt P50747).
T1 construct: Vector pARA(hBPL-His6) was produced by cloning the full-length gene into Nco1/Hind111 treated pARA13; initiator Met (NcoI site) before Ala80 (N); made in house; host or cells: E. coli BL21(DE3)pLys, pET-16b vector
T1 sequence (P50747 80-726 limits assumed): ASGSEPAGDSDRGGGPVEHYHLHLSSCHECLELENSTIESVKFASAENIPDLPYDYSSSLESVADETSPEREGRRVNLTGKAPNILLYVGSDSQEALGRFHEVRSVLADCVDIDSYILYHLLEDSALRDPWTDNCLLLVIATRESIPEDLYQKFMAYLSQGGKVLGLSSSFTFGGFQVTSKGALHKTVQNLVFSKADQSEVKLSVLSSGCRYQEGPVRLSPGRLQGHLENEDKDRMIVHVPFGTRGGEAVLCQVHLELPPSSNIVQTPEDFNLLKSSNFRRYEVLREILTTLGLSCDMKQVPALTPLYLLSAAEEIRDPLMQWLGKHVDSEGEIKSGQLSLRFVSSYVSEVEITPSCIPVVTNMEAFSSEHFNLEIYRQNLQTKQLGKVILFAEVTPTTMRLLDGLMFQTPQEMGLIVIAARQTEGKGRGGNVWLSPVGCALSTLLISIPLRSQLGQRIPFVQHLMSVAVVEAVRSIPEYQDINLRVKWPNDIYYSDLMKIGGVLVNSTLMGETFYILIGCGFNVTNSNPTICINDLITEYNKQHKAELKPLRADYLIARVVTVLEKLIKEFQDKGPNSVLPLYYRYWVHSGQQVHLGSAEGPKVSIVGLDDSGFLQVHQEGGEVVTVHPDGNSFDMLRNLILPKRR
Put plainly: In vitro biotinylation assay of human BPL (Example 9). The format is biochemical. As for the experimental part:
(§1) One hundred ng of biotin domain was coated onto each well of Griener Lumitrac 600 White 96-well plates (Stennick Scientific) with >95% of the peptide binding. Coating was performed overnight at 4° C. in 100 uL of Tris Buffered saline (TBS, pH 7.5). The sample was removed and wells blocked in 150 ul of a 1% BSA solution in TBS for 1 hr at 37° C. The blocking buffer was removed and wells washed five times in TBS buffer containing 0.1% Tween-20. Into each well 85 ul of the BPL reaction mix was added. The reaction for both C. albicans and human BPL are performed in 50 mM Tris-HCl pH 8.0, 100 uM ATP, 5.5 mM MgCl2, 0.1 mg/ml BSA, 10 uM biotin, […].
Ten ul of either buffer alone or buffer containing inhibitor was added to the reaction mix and pre-equilibrated at 37° C. for 5 minutes. […] The quantitative analysis of biotinylated protein formed in the reaction and coupled onto the well surface was determined using time resolved fluorescence. […] Fifty ul of DELFIA Enhancement solution (Perkin Elmer) was added and incubated for ten minutes at room temperature before quantitation. Quantitation was performed using a FLUOstar Galaxy plate reader (BMG Labtechnologies). […]
(§2) The activity of BPL from Escherichia coli, Staphylococcus aureus, Saccharomyces cerevisiae and Homo sapiens was measured using an in vitro biotinylation assay in the presence of increasing concentrations of Compounds 2 to 5.

Data set [2] deals with C. albicans BPL (Candida albicans, UniProt A0A1D8PUA1). Description: biochemical. Type of data set: biochemical.
Description: One hundred ng of biotin domain was coated onto each well of Griener Lumitrac 600 White 96-well plates (Stennick Scientific) with >95% of the peptide binding. Coating was performed overnight at 4° C. in 100 uL of Tris Buffered saline (TBS, pH 7.5). The sample was removed and wells blocked in 150 ul of a 1% BSA solution in TBS for 1 hr at 37° C. The blocking buffer was removed and wells washed five times in TBS buffer containing 0.1% Tween-20. Into each well 85 ul of the BPL reaction mix was added. The reaction for both C. albicans and human BPL are performed in 50 mM Tris-HCl pH 8.0, 100 uM ATP, 5.5 mM MgCl2, 0.1 mg/ml BSA, 10 uM biotin, 0.1 uM dithiothreitol.
Ten ul of either buffer alone or buffer containing inhibitor was added to the reaction mix and pre-equilibrated at 37° C. for 5 minutes. BPL reactions are initiated by the addition of 5 ul enzyme to a final concentration of 3.4 nM (1-5 nM). The reaction is allowed to proceed at 37° C. for 15 minutes at which point it is terminated by the addition of 5 ul 0.5 M EDTA (final concentration 25 mM). The reaction mix was discarded and wells washed five times in TBS-TD (TBS, 0.1% Tween-20 and 100 uM diethylenetriaminepentaacetic acid (DPTA)). The quantitative analysis of biotinylated protein formed in the reaction and coupled onto the well surface was determined using time resolved fluorescence. Fifty ul of Europium labelled streptavidin (Perkin-Elmer) solution, diluted to 0.1 ug/ml in TBS-TD, was added to each well. The plates were incubated at 37° C. for 1 hr before being washed five times in TBS-TD then three times in water. Fifty ul of DELFIA Enhancement solution (Perkin Elmer) was added and incubated for ten minutes at room temperature before quantitation. Quantitation was performed using a FLUOstar Galaxy plate reader (BMG Labtechnologies).
Each compound in the screening library was dissolved in 100% DMSO, added to the reactions to a final concentration of 10 μM or 50 μM and their effect on BPL activity measured. […] The inhibitory activity of the compounds was determined relative to the negative control reactions containing only DMSO.
Data set [3] has as its target T2, Staphylococcus aureus BPL (UniProt A0A3A5LBF0).
T2 sequence (A0A3A5LBF0 1-323): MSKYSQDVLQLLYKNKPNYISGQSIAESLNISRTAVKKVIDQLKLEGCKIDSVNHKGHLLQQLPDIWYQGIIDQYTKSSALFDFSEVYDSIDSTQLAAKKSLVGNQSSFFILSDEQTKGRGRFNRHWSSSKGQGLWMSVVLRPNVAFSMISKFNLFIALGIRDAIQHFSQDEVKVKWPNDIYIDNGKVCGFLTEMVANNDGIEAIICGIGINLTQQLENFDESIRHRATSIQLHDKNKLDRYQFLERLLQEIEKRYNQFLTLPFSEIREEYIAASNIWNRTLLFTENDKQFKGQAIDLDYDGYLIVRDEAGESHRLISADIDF
Put plainly: In vitro biotinylation assay of S. aureus BPL. Type of data set: biochemical. As to the method: (§3) Purified hPC-108 was analysed in an in vitro biotinylation assay using recombinant human BPL as follows: BPL activity was assayed by measuring the incorporation of [^3H]biotin into biotin domain. The reactions contained 50 mM Tris-HCl, pH 8.0, 3 mM ATP, 5.5 mM MgCl2, 50 mM KCl, 5 uM biotin, 5 pmol [^3H]biotin (specific activity 35-44 Ci/mmol) 0.1 mM dithiothreitol, 0.1 mg/ml BSA and varying concentrations of hPC-108. The reaction was initiated by addition of purified […] BPL to a final concentration of 13 nM and incubated at 37° C. for up to 30 minutes when aliquots of the reaction were spotted onto biotin- and trichloroacetic acid-treated filters. After air-drying, the filters were washed twice in 10% ice cold trichloroacetic acid and once in ethanol, dried and the acid insoluble radioactivity measured. Values for Km and Vmax were determined by fitting a plot of substrate concentration against rate to the Michaelis-Menten equation using GraphPad Prism for MacIntosh (GraphPad Software Inc, San Diego, Calif.).
as §2

Data set [4] deals with T3, Saccharomyces cerevisiae BPL (Saccharomyces cerevisiae, UniProt P48445).
T3 sequence (P48445 1-690): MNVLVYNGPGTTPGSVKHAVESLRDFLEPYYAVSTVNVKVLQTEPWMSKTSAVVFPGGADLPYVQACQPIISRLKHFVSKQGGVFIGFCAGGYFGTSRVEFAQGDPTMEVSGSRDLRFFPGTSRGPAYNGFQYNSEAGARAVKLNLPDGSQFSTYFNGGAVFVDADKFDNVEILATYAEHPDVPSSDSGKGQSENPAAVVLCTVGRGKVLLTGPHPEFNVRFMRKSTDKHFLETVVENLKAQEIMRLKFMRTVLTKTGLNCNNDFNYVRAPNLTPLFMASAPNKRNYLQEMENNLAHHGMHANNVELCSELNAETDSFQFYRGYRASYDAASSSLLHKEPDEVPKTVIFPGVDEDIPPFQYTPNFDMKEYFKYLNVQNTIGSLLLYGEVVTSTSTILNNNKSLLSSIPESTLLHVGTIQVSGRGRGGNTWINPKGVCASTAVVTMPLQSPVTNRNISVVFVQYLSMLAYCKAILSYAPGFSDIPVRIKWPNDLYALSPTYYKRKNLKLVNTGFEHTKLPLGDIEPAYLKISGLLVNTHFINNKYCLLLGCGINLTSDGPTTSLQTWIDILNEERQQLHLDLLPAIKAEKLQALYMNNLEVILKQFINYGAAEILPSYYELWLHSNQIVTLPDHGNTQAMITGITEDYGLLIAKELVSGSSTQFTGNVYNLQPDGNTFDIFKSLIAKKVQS
Description: In vitro biotinylation assay of S. cerevisiae BPL. Type of data set: biochemical. As to the method: as §1
Ten ul of either buffer alone or buffer containing inhibitor was added to the reaction mix and pre-equilibrated at 37° C. for 5 minutes. […] The quantitative analysis of biotinylated protein formed in the reaction and coupled onto the well surface was determined using time resolved fluorescence. […] Fifty ul of DELFIA Enhancement solution (Perkin Elmer) was added and incubated for ten minutes at room temperature before quantitation. Quantitation was performed using a FLUOstar Galaxy plate reader (BMG Labtechnologies).
as §2

Data set [5] deals with T4, Escherichia coli BPL (Escherichia coli, UniProt P06709).
T4 construct: the plasmid pHBA, which contains the entire coding region for E. coli BirA; made in house; host or cells: E. coli BL21(DE3), plasmid pHBA (pET-16b)
Put plainly: In vitro biotinylation assay of E. coli BPL. The format is biochemical. As to the method: as §3, §2

Data set [6] relates to Staphylococcus aureus. Put plainly: Antibiotic activity against Staphylococcus aureus on solid media and in liquid culture. Type of data set: cell-based. Particulars: L-agar, filter disc soaked in 100 μM, overnight 37° C. As for the experimental part:
The antibacterial properties of Compound 2 were assessed against Staphylococcus aureus grown on both solid media (A-C) and in liquid culture (D). Log phase culture was plated onto L-agar and filter discs soaked in A) DMSO (vehicle control), B) 100 μM ampicillin or C) 100 μM compound #2. A single filter was placed in the centre of a bacterial plate before being placed at 37° C. overnight. The clear zone surrounding the disc in B & C represents sensitivity of S. aureus to the treatment. D) This sensitivity was quantitated in liquid culture by seeding 10^4 cells in a 96 well plate followed by overnight growth at 37° C. The growth of the culture was measured by absorbance at 600 nm.

The test system of data set [7] is T5, hPC-108, biotin domain of human pyruvate carboxylase (C-terminal 108 amino acids), cleaved from GST.
T5 sequence: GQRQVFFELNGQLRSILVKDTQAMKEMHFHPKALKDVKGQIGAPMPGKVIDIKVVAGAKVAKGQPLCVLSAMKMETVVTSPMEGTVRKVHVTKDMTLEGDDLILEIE

The target of data set [8] is T1, human BPL. Put plainly: Kinetic analysis of biotinylation of hPC-108, [3H]biotin incorporation assay. The settings on record: varying concentrations of hPC-108; read-out: KM of human BPL for the biotin domain. The format is biochemical. As to the method: as §3

Sequence of C. albicans BPL (A0A1D8PUA1 entry or part of it): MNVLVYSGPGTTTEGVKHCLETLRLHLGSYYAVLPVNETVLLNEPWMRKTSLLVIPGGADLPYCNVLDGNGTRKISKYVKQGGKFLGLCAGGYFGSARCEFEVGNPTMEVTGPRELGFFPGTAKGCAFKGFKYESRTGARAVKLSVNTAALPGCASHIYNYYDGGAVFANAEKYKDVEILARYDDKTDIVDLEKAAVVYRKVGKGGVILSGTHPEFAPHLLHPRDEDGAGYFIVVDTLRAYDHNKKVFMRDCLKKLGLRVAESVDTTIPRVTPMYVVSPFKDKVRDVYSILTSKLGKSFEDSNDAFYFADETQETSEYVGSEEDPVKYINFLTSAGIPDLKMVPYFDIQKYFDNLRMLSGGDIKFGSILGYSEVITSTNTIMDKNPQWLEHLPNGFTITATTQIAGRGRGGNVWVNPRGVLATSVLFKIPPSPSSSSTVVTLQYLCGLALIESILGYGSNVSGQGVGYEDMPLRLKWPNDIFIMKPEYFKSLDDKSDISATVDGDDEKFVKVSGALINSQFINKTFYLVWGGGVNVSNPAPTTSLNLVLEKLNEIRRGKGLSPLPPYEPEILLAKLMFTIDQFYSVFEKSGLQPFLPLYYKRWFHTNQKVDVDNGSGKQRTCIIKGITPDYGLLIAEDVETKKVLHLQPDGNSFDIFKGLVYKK
T4 sequence (P06709 whole entry): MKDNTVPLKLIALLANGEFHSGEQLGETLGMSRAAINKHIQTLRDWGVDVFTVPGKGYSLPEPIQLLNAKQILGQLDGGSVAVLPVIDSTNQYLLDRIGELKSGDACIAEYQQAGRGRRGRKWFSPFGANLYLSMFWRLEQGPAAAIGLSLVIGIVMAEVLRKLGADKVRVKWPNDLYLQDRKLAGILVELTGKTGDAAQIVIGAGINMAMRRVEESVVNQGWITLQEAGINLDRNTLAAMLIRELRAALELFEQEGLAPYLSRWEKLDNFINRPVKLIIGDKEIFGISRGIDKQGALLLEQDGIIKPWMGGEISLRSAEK

With `Nc1ncnc2c1ncn2C1OC(COP(=O)(O)OCCCCCC2SCC3NC(=O)NC32)C(O)C1O` (stereo not drawn) [BtnOH-AMP, biotinol-adenylate], the “Inhibition of the human BPL reaction (in words)” value in data set [1] was “inhibitor”. Further, the “Inhibition of the Candida BPL reaction (in words)” value in data set [2] is on record as “potent inhibitors”. Also, the IC50 in data set [2] (concentration response curve, read-out: IC50, inhibition of Candida BPL activity) came out at 1000 ± 200 nM.
Turning to `C=CCC(Cc1cc(OC)cc(OC)c1)(C(=O)O)C(=O)O` [Compound 4, 2-allyl-2-(3,5-dimethoxybenzyl)malonic acid], the IC50 is greater than 50000 nM in data set [1], 2700 nM in data set [3], greater than 50000 nM in data set [4] and 0.9 nM in data set [5].
As for `CC1(C)S[C@@H]2[C@H](NC(=O)[C@H](N)c3ccccc3)C(=O)N2[C@H]1C(=O)O` [ampicillin], the “Sensitivity of S. aureus on solid media (filter disc)” value in data set [6] is “clear zone”.
In the case of `O=P(O)(O)OP(=O)(O)O` [pyrophosphate], the “Inhibition of the Candida BPL reaction (in words)” value in data set [2] is “potent inhibitors”. Moreover, in data set [2] (in the range of 50 uM to 1 mM), the “Inhibition of the Candida BPL reaction by pyrophosphate” value is reported as “strongly inhibited”.
“recombinant human biotin protein ligase [Met1-Ala80]hBPL-His6”: in data set [7], the “KM (in vitro [3H]biotin incorporation assay, Michaelis-Menten fit)” value came to 1.0 ± 0.2 µM.

B1: hPC-108: polypeptide of the C-terminal 108 amino acids (biotin domain) of human pyruvate carboxylase, BPL substrate (protein)
chain: T5 sequence
Turning to B1, the Km in data set [8] came out at 1 ± 0.2 µM.
